Results reported in patent US20110152243A1, “NOVEL THIENOPYRROLE COMPOUNDS” (ABBOTT LABORATORIES, priority 2009, published 2011).

molecular target: PKCθ (Homo sapiens, UniProt Q04759); experiment: PKCθ enzyme data at 1 mM ATP; format: biochemical
Sequence (Q04759 whole entry): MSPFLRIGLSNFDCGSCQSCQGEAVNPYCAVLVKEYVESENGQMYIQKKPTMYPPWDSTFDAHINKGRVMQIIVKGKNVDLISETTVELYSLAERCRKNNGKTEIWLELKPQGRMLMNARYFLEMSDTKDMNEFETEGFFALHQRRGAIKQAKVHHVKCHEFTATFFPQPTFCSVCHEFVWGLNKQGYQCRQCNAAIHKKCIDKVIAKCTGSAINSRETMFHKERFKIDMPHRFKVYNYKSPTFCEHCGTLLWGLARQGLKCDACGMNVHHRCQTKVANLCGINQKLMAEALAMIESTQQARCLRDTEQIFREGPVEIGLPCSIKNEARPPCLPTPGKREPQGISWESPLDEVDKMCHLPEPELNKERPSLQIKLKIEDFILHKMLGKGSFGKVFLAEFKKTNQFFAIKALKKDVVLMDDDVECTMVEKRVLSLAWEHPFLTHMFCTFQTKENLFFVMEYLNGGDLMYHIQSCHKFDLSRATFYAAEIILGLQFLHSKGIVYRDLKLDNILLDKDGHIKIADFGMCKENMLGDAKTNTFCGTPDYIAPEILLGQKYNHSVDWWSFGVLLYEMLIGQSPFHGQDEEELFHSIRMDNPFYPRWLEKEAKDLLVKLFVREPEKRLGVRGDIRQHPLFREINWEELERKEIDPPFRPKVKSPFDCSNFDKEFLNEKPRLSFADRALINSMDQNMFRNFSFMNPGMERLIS

Compared with `O=C1NC(=O)C(c2c[nH]c3sccc23)=C1c1nc(N2CCn3c(nnc3C(F)(F)F)C2)nc2ccccc12` [E.1.20], `Cc1nnc2n1CCN(c1nc(C3=C(c4c[nH]c5sccc45)C(=O)NC3=O)c3ccccc3n1)C2` [E.1.40] is lower in IC50: 100 to 500 nM for the first, < 100 nM for the second.

`O=C1NC(=O)C(c2c[nH]c3sccc23)=C1c1nc(N2CCN(C3CC3)CC2)nc2ccccc12` [E.1.18] and `O=C1NC(=O)C(c2c[nH]c3sccc23)=C1c1nc(N2CCC(N3CCC3)CC2)nc2ccccc12` [E.1.13] cannot be ordered by IC50: < 100 nM for the first, < 100 nM for the second.

`O=C1NC(=O)C(c2c[nH]c3sccc23)=C1c1nc(N2CCC3(CCN3)CC2)nc2ccccc12` [E.1.35] and `O=C1NC(=O)C(c2c[nH]c3sccc23)=C1c1nc(N2CCNCC2)nc2ccccc12` [G.1.5] cannot be ordered by IC50: < 100 nM for the first, < 100 nM for the second.

`CN(C)Cc1ncc2n1CCN(c1nc(C3=C(c4c[nH]c5sccc45)C(=O)NC3=O)c3ccccc3n1)C2` [E.1.51] and `CCc1ncc2n1CCN(c1nc(C3=C(c4c[nH]c5sccc45)C(=O)NC3=O)c3ccccc3n1)C2` [E.1.47] cannot be ordered by IC50: < 100 nM for the first, < 100 nM for the second.

First: CN1CCN(c2nc(C3=C(c4c[nH]c5sccc45)C(=O)NC3=O)c3ncccc3n2)CC1 [F.4.25]
Second: CN1CCN(c2nc(C3=C(c4c[nH]c5sccc45)C(=O)NC3=O)c3c(O)cccc3n2)CC1 [F.4.12]
The IC50 of the first is lower: 100 to 500 nM for the first, 500 to 1000 nM for the second.

`O=C1NC(=O)C(c2c[nH]c3sccc23)=C1c1nc(N2CCN3CCC[C@H]3C2)nc2ccccc12` [E.1.44] and `O=C1NC(=O)C(c2c[nH]c3sccc23)=C1c1nc(N2CCN3CCC[C@@H]3C2)nc2ccccc12` [E.1.1, (R)-3-(2-(Hexahydropyrrolo[1,2-a]pyrazin-2(1H)-yl)quinazolin-4-yl)-4-(6H-thieno[2,3-b]pyrrol-4-yl)-1H-pyrrole-2,5-dione] cannot be ordered by IC50: < 100 nM for the first, < 100 nM for the second.

First: CN1CCN(c2nc3c(c(C4=C(c5c[nH]c6sccc56)C(=O)NC4=O)n2)CCC3)CC1 [F.4.10]
Second: Cc1cccc2nc(N3CCN(C)CC3)nc(C3=C(c4c[nH]c5sccc45)C(=O)NC3=O)c12 [F.4.30]
The IC50 of the first is higher: 100 to 500 nM for the first, < 100 nM for the second.

First: CN1CCC(n2nc(C3=C(c4c[nH]c5sccc45)C(=O)NC3=O)c3ccccc32)CC1 [F.4.7]
Second: CN1CCC(Cn2nc(C3=C(c4c[nH]c5sccc45)C(=O)NC3=O)c3ccccc32)CC1 [F.4.6]
The IC50 of the first is higher: 100 to 500 nM for the first, < 100 nM for the second. The second is the more potent here.

First: CC(C1CCN(C)CC1)n1nc(C2=C(c3c[nH]c4sccc34)C(=O)NC2=O)c2ccccc21 (stereo not shown) [F.4.35]
Second: CN1CCC(C)(Cn2nc(C3=C(c4c[nH]c5sccc45)C(=O)NC3=O)c3ccccc32)CC1 [F.4.23]
The IC50 of the first is higher: 500 to 1000 nM for the first, 100 to 500 nM for the second. The second is the more potent here.

Compared with `Cc1ncc2n1CCN(c1nc(C3=C(c4c[nH]c5sccc45)C(=O)NC3=O)c3ccccc3n1)C2` [E.1.26], `CC(C)(O)c1ncc2n1CCN(c1nc(C3=C(c4c[nH]c5sccc45)C(=O)NC3=O)c3ccccc3n1)C2` [E.1.49] is higher in IC50: < 100 nM for the first, 100 to 500 nM for the second. The first is the more potent here.

`CN1CCN(c2nc(C3=C(c4c[nH]c5ccsc45)C(=O)NC3=O)c3c(F)cccc3n2)CC1` [F.3.1, 3-(5-Fluoro-2-(4-methylpiperazin-1-yl)quinazolin-4-yl)-4-(4H-thieno[3,2-b]pyrrol-6-yl)-1H-pyrrole-2,5-dione] and `CN1CCN(c2nc(C3=C(c4c[nH]c5ccsc45)C(=O)NC3=O)c3ccccc3n2)CC1` [F.1.2, 3-(2-(4-Methylpiperazin-1-yl)quinazolin-4-yl)-4-(4H-thieno[3,2-b]pyrrol-6-yl)-1H-pyrrole-2,5-dione] cannot be ordered by IC50: < 100 nM for the first, < 100 nM for the second.

`CN1CCCC(Cn2nc(C3=C(c4c[nH]c5sccc45)C(=O)NC3=O)c3ccccc32)C1` (stereo not shown) [F.4.28] and `O=C1NC(=O)C(c2nn(CC3CCN(CCF)CC3)c3ccccc23)=C1c1c[nH]c2sccc12` [F.4.20] fall in the same range of IC50: 100 to 500 nM for the first, 100 to 500 nM for the second.

`O=C1NC(=O)C(c2c[nH]c3ccsc23)=C1c1nc(N2CCn3ccnc3C2)nc2ccccc12` [E.2.7] and `O=C1NC(=O)C(c2c[nH]c3ccsc23)=C1c1nc(N2CCNCC2)nc2ccccc12` [G.1.1, 3-(2-(piperazin-1-yl)quinazolin-4-yl)-4-(4H-thieno[3,2-b]pyrrol-6-yl)-1H-pyrrole-2,5-dione] cannot be ordered by IC50: < 100 nM for the first, < 100 nM for the second.

`NC1(C(=O)NC2CC2)CCN(c2nc(C3=C(c4c[nH]c5sccc45)C(=O)NC3=O)c3ccccc3n2)CC1` [E.1.58] and `NC1(CCO)CCN(c2nc(C3=C(c4c[nH]c5sccc45)C(=O)NC3=O)c3ccccc3n2)CC1` [E.1.34] cannot be ordered by IC50: < 100 nM for the first, < 100 nM for the second.

First: CN(C)CC1CCN(c2nc(C3=C(c4c[nH]c5sccc45)C(=O)NC3=O)c3ccccc3n2)C1 (stereo not shown) [E.1.28]
Second: CN(C)CC1CCN(c2nc(C3=C(c4c[nH]c5sccc45)C(=O)NC3=O)c3ccccc3n2)CC1 [E.1.5]
The IC50 of the first is higher: 100 to 500 nM for the first, < 100 nM for the second.

`O=C1NC(=O)C(c2c[nH]c3ccsc23)=C1c1nc(NC2CCNCC2)nc2ccccc12` [G.1.8] and `NCC1CCN(c2nc(C3=C(c4c[nH]c5ccsc45)C(=O)NC3=O)c3ccccc3n2)CC1` [G.1.4] fall in the same range of IC50: 100 to 500 nM for the first, 100 to 500 nM for the second.

`CN1CCN(c2cc(C3=C(c4c[nH]c5ccsc45)C(=O)NC3=O)c3ccccc3n2)CC1` [F.3.3] and `O=C1NC(=O)C(c2c[nH]c3ccsc23)=C1c1nc(N2CCN3CCC[C@@H]3C2)nc2ccccc12` [E.2.1, (R)-3-(2-(Hexahydropyrrolo[1,2-a]pyrazin-2(1H)-yl)quinazolin-4-yl)-4-(4H-thieno[3,2-b]pyrrol-6-yl)-1H-pyrrole-2,5-dione] cannot be ordered by IC50: < 100 nM for the first, < 100 nM for the second.

First: O=C1NC(=O)C(c2c[nH]c3sccc23)=C1c1nc(N2CCC(CN3CCC3)CC2)nc2ccccc12 [E.1.17]
Second: CC(C1CCN(c2nc(C3=C(c4c[nH]c5sccc45)C(=O)NC3=O)c3ccccc3n2)CC1)N1CCCC1 (stereo not shown) [E.1.4]
The IC50 of the first is lower: < 100 nM for the first, 500 to 1000 nM for the second. The first is the more potent here.

`CN(C)C1(C)CCN(c2nc(C3=C(c4c[nH]c5sccc45)C(=O)NC3=O)c3ccccc3n2)CC1` [E.1.41] and `CNC1(C)CCN(c2nc(C3=C(c4c[nH]c5sccc45)C(=O)NC3=O)c3ccccc3n2)CC1` [E.1.42] fall in the same range of IC50: 100 to 500 nM for the first, 100 to 500 nM for the second.

`CC(C)(C)N1CCN(c2nc(C3=C(c4c[nH]c5sccc45)C(=O)NC3=O)c3ccccc3n2)CC1` [E.1.22] and `CC(C)(O)CN1CCN(c2nc(C3=C(c4c[nH]c5sccc45)C(=O)NC3=O)c3ccccc3n2)CC1` [E.1.55] cannot be ordered by IC50: < 100 nM for the first, < 100 nM for the second.

First: CN(C)[C@H]1CC[C@@H](Cn2nc(C3=C(c4c[nH]c5sccc45)C(=O)NC3=O)c3ccccc32)CC1 [F.4.18]
Second: O=C1NC(=O)C(c2nn(C[C@H]3CCNC[C@H]3F)c3ccccc23)=C1c1c[nH]c2sccc12 (relative stereo) [G.1.17]
The IC50 of the first is higher: 100 to 500 nM for the first, < 100 nM for the second. The second is the more potent here.

`O=C1NC(=O)C(c2c[nH]c3sccc23)=C1c1nc(N2CCn3cncc3C2)nc2ccccc12` [E.1.46] and `O=C1NC(=O)C(c2c[nH]c3sccc23)=C1c1nc(N2CCn3cnc(CO)c3C2)nc2ccccc12` [E.1.50] cannot be ordered by IC50: < 100 nM for the first, < 100 nM for the second.

`CN1CCN(c2cc3ccc(F)cc3c(C3=C(c4c[nH]c5sccc45)C(=O)NC3=O)n2)CC1` [F.4.34] and `CN1CCN(c2nc(C3=C(c4c[nH]c5sccc45)C(=O)NC3=O)c3cc(Cl)ccc3n2)CC1` [F.4.13] cannot be ordered by IC50: < 100 nM for the first, < 100 nM for the second.

First: CN1CCN(c2nccc(C3=C(c4c[nH]c5sccc45)C(=O)NC3=O)n2)CC1 [F.4.8]
Second: Cc1ccc2nc(N3CCN(C)CC3)nc(C3=C(c4c[nH]c5sccc45)C(=O)NC3=O)c2c1 [F.4.31]
The IC50 of the first is higher: 500 to 1000 nM for the first, < 100 nM for the second.

First: CN(C)C1CCN(c2nc(C3=C(c4c[nH]c5ccsc45)C(=O)NC3=O)c3ccccc3n2)CC1 [E.2.3]
Second: O=C1NC(=O)C(c2c[nH]c3ccsc23)=C1c1nc(N2CCN3C(=O)CCC3C2)nc2ccccc12 (stereo not shown) [E.2.9]
The IC50 of the first is lower: < 100 nM for the first, 100 to 500 nM for the second.

`O=C1CN(c2nc(C3=C(c4c[nH]c5sccc45)C(=O)NC3=O)c3ccccc3n2)CCN1` [E.1.7] and `O=C1NC(=O)C(c2c[nH]c3sccc23)=C1c1nc(N2CCN3C(=O)OCC3C2)nc2ccccc12` (stereo not shown) [E.1.15] fall in the same range of IC50: 500 to 1000 nM for the first, 500 to 1000 nM for the second.

First: O=C1NC(=O)C(c2c[nH]c3sccc23)=C1c1nc(N2C[C@@H]3C[C@H]2CN3)nc2ccccc12 [G.1.2]
Second: CN1CCN(c2nc(C3=C(c4c[nH]c5sccc45)C(=O)NC3=O)c3ccccc3n2)CC1CO (stereo not shown) [E.1.45]
The IC50 of the first is higher: 100 to 500 nM for the first, < 100 nM for the second. The second is the more potent here.

First: O=C1NC(=O)C(c2c3ccccc3nn2CC2CCNCC2)=C1c1c[nH]c2sccc12 [G.1.16]
Second: CN1CCC(Cn2cc(C3=C(c4c[nH]c5sccc45)C(=O)NC3=O)c3ccccc32)CC1 [F.4.17]
The IC50 of the first is higher: 100 to 500 nM for the first, < 100 nM for the second. The second is the more potent here.

`COc1ccc2nc(N3CCN(C)CC3)nc(C3=C(c4c[nH]c5sccc45)C(=O)NC3=O)c2c1` [F.4.14] and `CN1CCN(C2CCN(c3nc(C4=C(c5c[nH]c6sccc56)C(=O)NC4=O)c4ccccc4n3)CC2)CC1` [E.1.8] cannot be ordered by IC50: < 100 nM for the first, < 100 nM for the second.

First: CN1CC[C@@H]2CN(c3nc(C4=C(c5c[nH]c6sccc56)C(=O)NC4=O)c4ccccc4n3)CC[C@@H]21 [E.1.59]
Second: N#CC1CCN(c2nc(C3=C(c4c[nH]c5sccc45)C(=O)NC3=O)c3ccccc3n2)CC1 [E.1.9]
The IC50 of the first is lower: < 100 nM for the first, 100 to 500 nM for the second. The first is the more potent here.

Compared with `C[C@@H]1CN(C2CCN(c3nc(C4=C(c5c[nH]c6sccc56)C(=O)NC4=O)c4ccccc4n3)CC2)C[C@H](C)O1` [E.1.6], `CN(C)C1CCN(c2nc(C3=C(c4c[nH]c5sccc45)C(=O)NC3=O)c3ccccc3n2)CC1CO` (stereo not shown) [E.1.37] is lower in IC50: 100 to 500 nM for the first, < 100 nM for the second.

`O=C1NC(=O)C(c2nc(N3CCN4CCC[C@@H]4C3)nc3cccc(F)c23)=C1c1c[nH]c2sccc12` [F.4.3, (R)-3-(5-Fluoro-2-(hexahydropyrrolo[1,2-a]pyrazin-2(1H)-yl)quinazolin-4-yl)-4-(6H-thieno[2,3-b]pyrrol-4-yl)-1H-pyrrole-2,5-dione] and `O=C1NC(=O)C(c2nc(N3CCN4CCC[C@@H]4C3)nc3cccc(F)c23)=C1c1c[nH]c2ccsc12` [F.3.2, (R)-3-(5-Fluoro-2-(hexahydropyrrolo[1,2-a]pyrazin-2(1H)-yl)quinazolin-4-yl)-4-(4H-thieno[3,2-b]pyrrol-6-yl)-1H-pyrrole-2,5-dione] cannot be ordered by IC50: < 100 nM for the first, < 100 nM for the second.

Compared with `O=C1NC(=O)C(c2c[nH]c3sccc23)=C1c1nc(N2CCC23CCNCC3)nc2ccccc12` [E.1.36], `O=C1NC(=O)C(c2c[nH]c3sccc23)=C1c1nc(N2CCC(O)(CN3CCCC3)CC2)nc2ccccc12` [E.1.25] is higher in IC50: < 100 nM for the first, 100 to 500 nM for the second.

`CN(C)CC1CCn2c(c(C3=C(c4c[nH]c5sccc45)C(=O)NC3=O)c3ccccc32)C1` (stereo not shown) [Example #2, 3-(8-((Dimethylamino)methyl)-6,7,8,9-tetrahydropyrido[1,2-a]indol-10-yl)-4-(6H-thieno[2,3-b]pyrrol-4-yl)-1H-pyrrole-2,5-dione] was tested, and the IC50 was < 100 nM.
